Where two headings read alike, the source gives them in different places.
Legend:
Aurora-2 (Aurora A) = biological target: T1, Aurora-2 (Aurora A) (Homo sapiens, UniProt O14965); assay: Aurora-2 (Aurora A) Inhibition Assay, coupled enzyme assay; assay type: biochemical; conditions: 400 μM ATP, 30° C.; read-out: Aurora A kinase activity Ki
T1 sequence (O14965 1-403): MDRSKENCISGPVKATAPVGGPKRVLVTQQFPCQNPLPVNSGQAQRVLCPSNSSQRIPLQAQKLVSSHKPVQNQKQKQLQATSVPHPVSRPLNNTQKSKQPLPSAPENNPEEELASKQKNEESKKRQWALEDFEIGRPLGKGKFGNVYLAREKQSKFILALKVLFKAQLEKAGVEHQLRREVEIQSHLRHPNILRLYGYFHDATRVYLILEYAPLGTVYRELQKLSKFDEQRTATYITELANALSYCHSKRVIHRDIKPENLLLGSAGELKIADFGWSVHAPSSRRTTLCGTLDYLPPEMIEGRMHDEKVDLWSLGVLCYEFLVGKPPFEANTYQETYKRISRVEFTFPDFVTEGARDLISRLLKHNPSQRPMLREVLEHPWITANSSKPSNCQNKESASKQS
Experimental: Compounds were screened for their ability to inhibit Aurora-2 using a standard coupled enzyme assay (Fox et al., Protein Sci., (1998) 7, 2249). Assays were carried out in a mixture of 100 mM Hepes (pH7.5), 10 mM MgCl2, 1 mM DTT, 25 mM NaCl, 2.5 mM phosphoenolpyruvate, 300 μM NADH, 30 μg/ml pyruvate kinase and 10 μg/ml lactate dehydrogenase. Final substrate concentrations in the assay were 400 μM ATP (Sigma Chemicals) and 570 μM peptide (Kemptide, American Peptide, Sunnyvale, Calif.). Assays were carried out at 30° C. and in the presence of 40 nM Aurora-2.
An assay stock buffer solution was prepared containing all of the reagents listed above, with the exception of Aurora-2 and the test compound of interest. 55 μl of the stock solution was placed in a 96 well plate followed by addition of 2 μl of DMSO stock containing serial dilutions of the test compound (typically starting from a final concentration of 7.5 μM). The plate was preincubated for 10 minutes at 30° C. and the reaction initiated by addition of 10 μl of Aurora-2. Initial reaction rates were determined with a Molecular Devices SpectraMax Plus plate reader over a 10 minute time course. IC50 and Ki data were calculated from non-linear regression analysis using the Prism software package (GraphPad Prism version 3.0cx for Macintosh, GraphPad Software, San Diego Calif., USA).

Aurora-1 (Aurora B) = Aurora-1 (Aurora B) (Homo sapiens, UniProt Q96GD4); assay: Aurora-1 (Aurora B) Inhibition Assay (radiometric); assay type: biochemical; conditions: 800 μM ATP; read-out: Aurora B kinase activity Ki
Sequence of Aurora-1 (Aurora B) (Q96GD4 whole entry): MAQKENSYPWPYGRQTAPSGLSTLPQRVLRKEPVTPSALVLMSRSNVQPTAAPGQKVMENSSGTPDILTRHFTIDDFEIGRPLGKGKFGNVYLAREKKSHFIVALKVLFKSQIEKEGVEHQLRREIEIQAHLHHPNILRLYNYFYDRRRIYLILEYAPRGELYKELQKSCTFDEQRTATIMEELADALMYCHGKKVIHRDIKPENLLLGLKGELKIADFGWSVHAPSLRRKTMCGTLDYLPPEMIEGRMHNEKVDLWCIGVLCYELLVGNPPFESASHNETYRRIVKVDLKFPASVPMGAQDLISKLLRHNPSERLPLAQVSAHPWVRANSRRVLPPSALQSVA
Experimental: An assay buffer solution was prepared which consisted of 25 mM HEPES (pH 7.5), 10 mM MgCl2, 0.1% BSA and 10% glycerol. A 22 nM Aurora-B solution, also containing 1.7 mM DTT and 1.5 mM Kemptide (LRRASLG), was prepared in assay buffer. To 22 μL of the Aurora-B solution, in a 96-well plate, was added 2 μl of a compound stock solution in DMSO and the mixture allowed to equilibrate for 10 minutes at 25° C. The enzyme reaction was initiated by the addition of 16 μl stock [γ-^33P]-ATP Pi-ATP solution (˜20 nCi/μL) prepared in assay buffer, to a final assay concentration of 800 μM. The reaction was stopped after 3 hours by the addition of 16 μL 500 mM phosphoric acid and the levels of ^33P incorporation into the peptide substrate were determined by the following method.
A phosphocellulose 96-well plate (Millipore, Cat no. MAPHNOB50) was pre-treated with 100 μL of a 100 mM phosphoric acid prior to the addition of the enzyme reaction mixture (40 μL). The solution was left to soak on to the phosphocellulose membrane for 30 minutes and the plate subsequently washed four times with 200 μL of a 100 mM phosphoric acid. To each well of the dry plate was added 30 μL of Optiphase ‘SuperMix’ liquid scintillation cocktail (Perkin Elmer) prior to scintillation counting (1450 Microbeta Liquid Scintillation Counter, Wallac). Levels of non-enzyme catalyzed background radioactivity were determined by adding 16 μL of the 500 mM phosphoric acid to control wells, containing all assay components (which acts to denature the enzyme), prior to the addition of the [γ-^33P]-ATP solution. Levels of enzyme catalyzed ^33P incorporation were calculated by subtracting mean background counts from those measured at each inhibitor concentration. For each Ki determination 8 data points, typically covering the concentration range 0-10 μM compound, were obtained in duplicate (DMSO stocks were prepared from an initial compound stock of 10 mM with subsequent 1:2.5 serial dilutions). Ki values were calculated from initial rate data by non-linear regression using the Prism software package (Prism 3.0, Graphpad Software, San Diego, Calif.).

Colo205 cells = assay: Analysis of Cell Proliferation, 3H thymidine incorporation; assay type: cell-based; conditions: Homo sapiens
Experimental: Compounds were screened for their ability to inhibit cell proliferation using Colo205 cells obtained from ECACC and using the assay shown below.
Colo205 cells were seeded in 96 well plates and serially diluted compound was added to the wells in duplicate. Control groups included untreated cells, the compound diluent (0.1% DMSO alone) and culture medium without cells. The cells were then incubated for 72 or 96 hrs at 37C in an atmosphere of 5% CO2/95% humidity.
To measure proliferation, 3 h prior to the end of the experiment 0.5 μCi of 3H thymidine was added to each well. Cells were then harvested and the incorporated radioactivity counted on a Wallac microplate beta-counter. Dose response curves were calculated using either Prism 3.0 (GraphPad) or SoftMax Pro 4.3.1 LS (Molecular Devices) software.

[1] = biological target: N-terminally truncated (Δ 27) Abl kinase (Homo sapiens, UniProt P00519); assay: Abl Kinase Activity Inhibition Assay, coupled enzyme system; assay type: biochemical; conditions: 110 μM ATP, 30° C.
Experimental: Compounds were screened for their ability to inhibit N-terminally truncated (Δ 27) Abl kinase activity using a standard coupled enzyme system (Fox et al., Protein Sci., 7, pp. 2249 (1998)). Reactions were carried out in a solution containing 100 mM HEPES (pH 7.5), 10 mM MgCl2, 25 mM NaCl, 300 μM NADH, 1 mM DTT and 3% DMSO. Final substrate concentrations in the assay were 110 μM ATP (Sigma Chemicals, St Louis, Mo.) and 70 μM peptide (EAIYAAPFAKKK, American Peptide, Sunnyvale, Calif.). Reactions were carried out at 30° C. and 21 nM Abl kinase. Final concentrations of the components of the coupled enzyme system were 2.5 mM phosphoenolpyruvate, 200 μM NADH, 60 μg/ml pyruvate kinase and 20 μg/ml lactate dehydrogenase.
An assay stock buffer solution was prepared containing all of the reagents listed above with the exception of ATP and the test compound of interest. The assay stock buffer solution (60 μl) was incubated in a 96 well plate with 2 μl of the test compound of interest at final concentrations typically spanning 0.002 μM to 30 μM at 30° C. for 10 min. Typically, a 12 point titration was prepared by serial dilutions (from 1 mM compound stocks) with DMSO of the test compounds in daughter plates. The reaction was initiated by the addition of 5 μl of ATP (final concentration 110 μM). Rates of reaction were obtained using a Molecular Devices Spectramax plate reader (Sunnyvale, Calif.) over 10 min at 30° C. The Ki values were determined from the residual rate data as a function of inhibitor concentration using nonlinear regression (Prism 3.0, Graphpad Software, San Diego, Calif.).

[2] = biological target: T2, T315I mutant of human Abl (Homo sapiens, UniProt P00519, T315I); assay: Mutant Abl Kinase (T315I) Activity Inhibition Assay (Upstate, radiometric); assay type: biochemical
T2 construct: purchased Upstate Cell Signaling Solutions (Dundee, UK)

[3] = COLO 205, 72 h, 72 hours, read-out: IC50 cell proliferation after 72 hours
[4] = COLO 205, 96 h, 96 hours, read-out: IC50 cell proliferation after 96 hours

Structure (SMILES)	Ki (Aurora-2 (Aurora A))	Ki (Aurora-1 (Aurora B))	IC50 (Colo205 cells; [3])	Ki [1]	Ki [2]	IC50 (Colo205 cells; [4])
Cc1cc(Nc2cc(N3CC4CCCN(C)C4C3)nc(Sc3ccc(NC(=O)CC(F)(F)F)cc3)n2)[nH]n1 (stereo not drawn) [Compound I-69, 3,3,3-trifluoro-N-(4-(4-(3-methyl-1H-pyrazol-5-ylamino)-6-(1-methyltetrahydro-1H-pyrrolo[3,4-b]pyridin-6(2H,7H,7aH)-yl)pyrimidin-2-ylthio)phenyl)propanamide]	≤ 10 nM	≤ 10 nM	≤ 25 nM	25 to 100 nM	< 200 nM	
Cc1cc(Nc2cc(N3CCC(F)C3)nc(Sc3ccc(NC(=O)CCC(F)(F)F)cc3)n2)[nH]n1 (stereo not drawn) [Compound I-81]	≤ 10 nM	10 to 50 nM	25 to 125 nM	25 to 100 nM	< 200 nM	
CCC(=O)Nc1ccc(Sc2nc(Nc3cc(C)n[nH]3)cc(N3CC[C@H](N4CCCC4)C3)n2)cc1 [Compound I-55]	≤ 10 nM				200 to 500 nM	≤ 50 nM
CCC(=O)Nc1ccc(Sc2nc(Nc3cc(C)n[nH]3)cc(N3CCC(C(C)(C)O)CC3)n2)cc1 [Compound I-42]	≤ 10 nM	10 to 50 nM		25 to 100 nM	200 to 500 nM	≤ 50 nM
CCC(=O)Nc1ccc(Sc2nc(Nc3cc(C)n[nH]3)cc(N3CCC(NC(C)(C)C)CC3)n2)cc1 [Compound I-7]	≤ 10 nM	10 to 50 nM		25 to 100 nM	< 200 nM	
CCC(=O)Nc1ccc(Sc2nc(Nc3cc(C)n[nH]3)cc(N3CCC4(CCN(C)C4)CC3)n2)cc1 [Compound I-53]	≤ 10 nM		25 to 125 nM	< 25 nM	< 200 nM	≤ 50 nM
Cc1cc(Nc2cc(N3CCC(O)CC3)nc(Sc3ccc(NC(=O)CC(F)(F)F)cc3)n2)[nH]n1 [Compound I-80]	≤ 10 nM	≤ 10 nM	25 to 125 nM	25 to 100 nM	< 200 nM	
Cc1cc(Nc2cc(N3CCC(N4CCCC4)CC3)nc(Sc3ccc(NC(=O)C4(C(F)(F)F)CC4)cc3)n2)[nH]n1 [Compound I-65]	≤ 10 nM	10 to 50 nM	≤ 25 nM	25 to 100 nM	< 200 nM	
Cc1cc(Nc2cc(N3CCC(N4CCCC4)CC3)nc(Sc3ccc(NC(=O)CC(F)(F)F)cc3)n2)[nH]n1 [Compound I-68]	≤ 10 nM	10 to 50 nM	≤ 25 nM	< 25 nM	< 200 nM	
CCC(=O)Nc1ccc(Sc2nc(Nc3cc(C)[nH]n3)cc(N3CC[C@H](N(C)C)C3)n2)cc1 [Compound I-46]	≤ 10 nM	10 to 50 nM		< 25 nM		≤ 50 nM
CCC(=O)Nc1ccc(Sc2nc(Nc3cc(C)n[nH]3)cc(N3CCC(O)(C(C)(C)C)CC3)n2)cc1 [Compound I-61]	≤ 10 nM	10 to 50 nM			200 to 500 nM	≤ 50 nM
Cc1cc(Nc2cc(N3CCC(N4CCOCC4)CC3)nc(Sc3ccc(NC(=O)CC(F)(F)F)cc3)n2)[nH]n1 [Compound I-72]	≤ 10 nM	≤ 10 nM	≤ 25 nM		< 200 nM	
Cc1cc(Nc2cc(N3CCC(N4CCC(F)(F)C4)CC3)nc(Sc3ccc(NC(=O)CC(F)(F)F)cc3)n2)[nH]n1 [Compound I-82]	≤ 10 nM	10 to 50 nM	25 to 125 nM		200 to 500 nM	
CCC(=O)Nc1ccc(Sc2nc(Nc3cc(C)n[nH]3)cc(N3CC4CN(C(C)C)CC4C3)n2)cc1 (stereo not drawn) [Compound I-60]	≤ 10 nM	10 to 50 nM		< 25 nM		≤ 50 nM
CCC(=O)Nc1ccc(Sc2nc(Nc3cc(C)n[nH]3)cc(N3CCC(N4CCCC4)CC3)n2)cc1 [Compound I-41]	≤ 10 nM		25 to 125 nM	25 to 100 nM	< 200 nM	≤ 50 nM
CCC(=O)Nc1ccc(Sc2nc(Nc3cc(C)n[nH]3)cc(N3CCC(F)C3)n2)cc1 (stereo not drawn) [Compound I-18]	≤ 10 nM	10 to 50 nM		< 25 nM	200 to 500 nM	50 to 200 nM
CN[C@H]1CCN(c2cc(Nc3ncc(C)s3)nc(Sc3ccc(NC(=O)C4CC4)cc3)n2)C1 [Compound I-52]	≤ 10 nM			< 25 nM		≤ 50 nM
CCC(=O)Nc1ccc(Sc2nc(Nc3cc(C)n[nH]3)cc(N3CCC(N4[C@H](C)CC[C@H]4C)CC3)n2)cc1 [Compound I-57]	≤ 10 nM	10 to 50 nM		< 25 nM		≤ 50 nM
CCN[C@H]1CCN(c2cc(Nc3cc(C)n[nH]3)nc(Sc3ccc(NC(=O)CC)cc3)n2)C1 [Compound I-39]	≤ 10 nM	10 to 50 nM		< 25 nM		≤ 50 nM
Cc1cnc(Nc2cc(N3CCC(N4CCCC4)CC3)nc(Sc3ccc(NC(=O)C4CC4)cc3)n2)s1 [Compound I-38]	≤ 10 nM	10 to 50 nM		< 25 nM		≤ 50 nM

Source: patent US20100137305A1, “AMINOPYRIMIDINES USEFUL AS KINASE INHIBITORS” (VERTEX PHARMACEUTICALS INCORPORATED, priority 2008, published 2010)
